The experiment concerns the target T1, G9a (GST-mG9a) (Mus musculus, UniProt Q9Z148).
T1 sequence (Q9Z148 1-1263): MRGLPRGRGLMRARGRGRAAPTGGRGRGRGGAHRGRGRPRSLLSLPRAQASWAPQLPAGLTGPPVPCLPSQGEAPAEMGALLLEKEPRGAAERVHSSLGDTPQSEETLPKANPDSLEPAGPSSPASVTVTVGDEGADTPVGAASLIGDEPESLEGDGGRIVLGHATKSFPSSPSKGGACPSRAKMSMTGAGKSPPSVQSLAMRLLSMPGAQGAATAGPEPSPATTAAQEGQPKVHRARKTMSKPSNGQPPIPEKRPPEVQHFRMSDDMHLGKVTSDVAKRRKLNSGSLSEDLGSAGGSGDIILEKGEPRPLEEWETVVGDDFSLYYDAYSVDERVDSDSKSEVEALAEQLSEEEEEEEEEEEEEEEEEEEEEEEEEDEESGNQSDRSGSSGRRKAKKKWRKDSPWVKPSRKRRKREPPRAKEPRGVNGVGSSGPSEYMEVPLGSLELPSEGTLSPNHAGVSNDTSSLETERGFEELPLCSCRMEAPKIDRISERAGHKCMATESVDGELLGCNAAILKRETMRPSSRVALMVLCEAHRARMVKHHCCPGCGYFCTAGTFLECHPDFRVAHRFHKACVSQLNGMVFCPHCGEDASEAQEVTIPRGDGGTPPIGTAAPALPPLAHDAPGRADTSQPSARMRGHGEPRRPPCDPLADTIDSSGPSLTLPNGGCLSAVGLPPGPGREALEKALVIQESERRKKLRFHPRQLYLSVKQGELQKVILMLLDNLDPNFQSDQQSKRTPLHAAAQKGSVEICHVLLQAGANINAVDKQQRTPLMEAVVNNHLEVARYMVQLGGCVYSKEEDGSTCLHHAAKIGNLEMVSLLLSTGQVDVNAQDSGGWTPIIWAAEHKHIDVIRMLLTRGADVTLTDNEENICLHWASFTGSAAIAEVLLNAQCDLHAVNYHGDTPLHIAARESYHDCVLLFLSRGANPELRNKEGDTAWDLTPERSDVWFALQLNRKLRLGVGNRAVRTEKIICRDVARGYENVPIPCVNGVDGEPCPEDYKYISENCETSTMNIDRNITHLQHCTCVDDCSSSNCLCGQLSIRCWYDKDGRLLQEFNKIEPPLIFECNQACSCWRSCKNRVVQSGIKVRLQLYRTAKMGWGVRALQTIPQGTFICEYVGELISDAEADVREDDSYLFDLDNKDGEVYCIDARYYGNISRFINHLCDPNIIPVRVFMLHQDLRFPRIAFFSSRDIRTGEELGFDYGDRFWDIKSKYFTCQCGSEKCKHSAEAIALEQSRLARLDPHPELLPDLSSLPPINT
Description: Assay for measuring histone methyltransferase activity using peptidyl MCA, inhibitor evaluation with G9a. To be noted: IC50 for G9a, Ac-histone H3 (1-9)-MCA. The experiment is classed as biochemical. As for the experimental part:
When G9a was adopted as a histone methyltransferase, the following method was used. 10 μL of 2×HMT buffer (100 mM Tris-HCl (pH 8.5), 20 mM MgCl2, 40 mM KCl, 20 mM 2-mercaptoethanol, 500 mM sucrose), 0.4 μL of a BSA solution (150 μg/mL), 2 μL of GST-mG9a (0, 0.5 μg/μL), 1 μL of gliotoxin (any of various concentrations) and 2.6 μL of distilled water were mixed and then incubated at room temperature for 1 hour. Then, 2 μL of SAM (10 mM) and 2 μL of a peptidyl MCA (Ac-histone H3 (1-9)-MCA) solution (0.6 mM) were added thereto, which was then incubated at 37° C. for 1 hour. Thereafter, 30 μL of a trypsin solution (20 mg/mL) was added thereto, followed by incubation at 37° C. for 15 minutes. Then, the fluorescence intensity of the solution was measured at an excitation wavelength (λex) of 390 nm and a fluorescence wavelength (λem) of 460 nm. The final concentration of GST-mG9a during the measurement of fluorescence intensity was 0.05 μg/μL. The results of the assay for measuring histone methyltransferase activity are shown in the middle panel of FIG. 18.
The rate of the inhibition of methylation by gliotoxin was calculated from the results in the left panel and the middle panel of FIG. 18. Specifically, the value (%) was calculated which was obtained by dividing “a value obtained by subtracting “the fluorescence intensity of AMC when peptidase was added but gliotoxin was not added” from “the fluorescence intensity of AMC when both peptidase and gliotoxin were added”” by “a value obtained by subtracting “the fluorescence intensity of AMC when peptidase was added but gliotoxin was not added” from “the fluorescence intensity of AMC when no peptidase or gliotoxin was added”” and multiplying the resultant value by 100. The rate (%) of the inhibition of methylation by gliotoxin is shown in the right panel of FIG. 18.
Specifically, the assay for measuring histone methyltransferase activity was carried out by the same method as the method using G9a […] in Example 8 except for using S-Adenosyl-L-homocysteine (SAH) in place of gliotoxin. SAH is a by-product of the methylation reaction and is known to inhibit histone methyltransferase in a negative feedback manner. […] The rate (%) of the inhibition of methylation by SAH was calculated from the results in the left panel of FIG. 19. The results are shown in the right panel of FIG. 19.
When G9a was adopted as a histone methyltransferase, the following method was used. […] Then, the fluorescence intensity of the solution was measured at an excitation wavelength (λex) of 330 nm and a fluorescence wavelength (λem) of 380 nm or at an excitation wavelength (λex) of 390 nm and a fluorescence wavelength (λem) of 460 nm. The final concentration of GST-mG9a during the measurement of fluorescence intensity was 0 μg/μL or 0.05 μg/μL.

Each structure is given as a SMILES string.

Consider `CN1C(=O)[C@]23CC4=CC=C[C@H](O)[C@H]4N2C(=O)[C@@]1(CO)SS3` [gliotoxin], for which the IC50 runs as follows: (Example 8, AMC fluorescence λex 390 nm/λem 460 nm, FIG. 18) 2800 nM; (Example 14, AMC fluorescence λex 390 nm/λem 460 nm, left panel of FIG. 27) 1800 nM; (Example 14, peptidyl MCA fluorescence λex 330 nm/λem 380 nm, right panel of FIG. 27) 2800 nM.

What is called IC50 is the midpoint of a concentration-inhibition curve. Higher therefore signals weaker potency.

Source of the values: patent publication US9012166B2, “Method for assaying histone methylation enzyme activity” (Kyushu Institute of Technology, priority 2010, dated 2015).
